This note sets out measurements from patent publication US10201556B2, “Combination for use in treating diseases or conditions associated with melanoma, or treating diseases or conditions associated with activated B-raf pathway” (InteRNA Technologies B.V., priority 2012, dated 2019).

Entries after “also recorded” stand apart in the source; their conditions may differ.

The subject of one data set is BCL2. Put plainly: Western immunoblotting of BCL2 protein levels. It is filed as cell-based, human. Here is the method: As control a scrambled miRNA and a non-targeting siRNA pool were included. Proteins were harvested 72 hrs post transfection using RIPA buffer supplemented with HALT™ Phosphatase Inhibitor (Thermo Scientific) and Protease Inhibitor Cocktail (Sigma). […] The membranes were blocked in 5% milk in TBS-T and incubated O/N at 4° C. with primary antibodies to bRAF, total ERK1/2, phosphoERK1/2, CDK4, BCL2 and tubulin (Santa Cruz). After incubation with secondary goat-anti-mouse antibodies (Santa Cruz), membranes were developed using ECL (Pierce).
Proteins were harvested 72 hrs post transfection using RIPA buffer supplemented with HALT™ Phosphatase Inhibitor (Thermo Scientific) and Protease Inhibitor Cocktail (Sigma). […] The membranes were blocked in 5% milk in TBS-T and incubated O/N at 4° C. with primary antibodies to bRAF, total ERK1/2, phosphoERK1/2, CDK4, BCL2 and tubulin (Santa Cruz). After incubation with secondary goat-anti-mouse antibodies (Santa Cruz), membranes were developed using ECL (Pierce).
As control a scrambled miRNA was included. Proteins were harvested 72 hrs post transfection using RIPA buffer supplemented with HALT™ Phosphatase Inhibitor (Thermo Scientific) and Protease Inhibitor Cocktail (Sigma). Fifteen μg protein was loaded on 10% TGX acrylamide gels (Bio-Rad) and subsequently transferred to PVDF membranes. The membranes were blocked in 5% milk in TBS-T and incubated O/N at 4° C. with primary antibodies to bRAF, total ERK1/2, phosphoERK1/2, BCL2, CDK4 and tubulin (Santa Cruz). After incubation with secondary goat-anti-mouse antibodies (Santa Cruz), membranes were developed using ECL (Pierce).
Proteins were isolated using RIPA buffer (50 mM Tris pH 8.0, 150 mM NaCL, 1% NP-40, 0.5% Sodium deoxycholate, 0.1% SDS), supplemented with Protease Inhibitor Cocktail (Sigma) and Halt™ Phosphatase Inhibitor Cocktail (Pierce/Thermo Scientific). […] Membranes were blocked in 5% milk or 5% BSA in TBS-T, and incubated O/N at 4° C. with primary antibodies against α-tubulin (1:5000), BRAF, pERK1/2, CDK4, RRM2 (all 1:1000), BCL-2 (1:500) (Santa Cruz), total-ERK1/2 (1:2000), BIRC5, AURKB (1:1000) (Cell Signaling), ERK1 (1:2000) (GeneTex). After incubation with appropriate secondary antibodies and western blot chemiluminescence substrate ECL (Pierce/Thermo Scientific), membranes were exposed to CL-XPosure Film (Pierce/Thermo Scientific).
Background: A western blot detects proteins with antibodies after separation by electrophoresis.

The test system of data set [1] is A375-R, M249-AR4 and M376. Description: MTS cell viability after miR-3157 mimic transfection, acquired resistance lines. It is filed as cell-based. The following applies: 10 nM mimic, 72 hours (FIG. 11c). Here is the method:
miR-3157 broadly affects melanoma cell line viability. Melanoma cell lines were divided into those that have the BRAFV600E mutation and are sensitive (a), intrinsically resistant (b) or acquired resistance to vemurafenib (c). Cell lines were transfected in triplicate with control miRNA or miR-3157 mimics (10 nM; n=2). Mock is transfectant only. Cell viability was determined using the MTS assay and calculated relative to mock transfected cells.
A375 cells were obtained from the Hubrecht Institute (Utrecht, The Netherlands); SKMEL-28, A2058 and RPMI-7951 were from the ATCC; SKMEL-57 was a gift from Dr. Patricia Groenen (Radboud University Nijmegen Medical Centre, The Netherlands); for cell line characteristics of M249, M249-AR4, M233 and M376 see (Atefi et al. 2011). A375-R, with in vitro acquired resistance to vemurafenib, was established in our lab by clonal selection of cells continually exposed to 1 μM vemurafenib. A375, A375-R, SKMEL-28, A2058 and SKMEL-57 were grown in DMEM GlutaMAX™-I (Gibco®), all other cell lines in RPMI-1640 (Gibco®). Media was supplemented with 10% FBS (Sigma), and cells were maintained in a humidified 37° C. incubator (Thermo Scientific) with 5% CO2. […]
Cells were seeded in 96-well plates and transfected the next day. […] Read-out was performed at 490 nm on a Multiskan FC plate reader (Thermo Scientific) at 72 hours post transfection.

The next data set deals with BIRC5. Put plainly: Western blotting of BIRC5 protein levels. It is filed as cell-based, human. The protocol:
(§1) Transfection was performed as described in Example 4 in 6-well format. Proteins were isolated using RIPA buffer (50 mM Tris pH 8.0, 150 mM NaCL, 1% NP-40, 0.5% Sodium deoxycholate, 0.1% SDS), supplemented with Protease Inhibitor Cocktail (Sigma) and Halt™ Phosphatase Inhibitor Cocktail (Pierce/Thermo Scientific). Fifteen μg protein was loaded on a 12% Mini-PROTEAN® TGX™ Precast Gel (Bio-Rad), and proteins were transferred to Immun-Blot PVDF Membrane (Bio-Rad). Membranes were blocked in 5% milk or 5% BSA in TBS-T, and incubated O/N at 4° C. with primary antibodies against α-tubulin (1:5000), BRAF, pERK1/2, CDK4, RRM2 (all 1:1000), BCL-2 (1:500) (Santa Cruz), total-ERK1/2 (1:2000), BIRC5, AURKB (1:1000) (Cell Signaling), ERK1 (1:2000) (GeneTex). After incubation with appropriate secondary antibodies and western blot chemiluminescence substrate ECL (Pierce/Thermo Scientific), membranes were exposed to CL-XPosure Film (Pierce/Thermo Scientific).

A further data set deals with ERK1. Description: Western blotting of ERK1 protein levels. It is filed as cell-based, human. The protocol: as §1
[2] abbreviates: A375Hu cells, 72 hrs, Western blot.
[3] abbreviates: A375 cells, increasing concentrations of mimic (FIG. 12c).
[4] abbreviates: A2058, M249, M249-AR4 and M376, increasing concentrations of mimic (FIG. 14a).

With “hsa-miR-3157-5p: mature miRNA mimic, SEQ ID NO 6 UUCAGCCAGGCUAGUGCAGUCU (listed as RNA, chemistry not given here)”, the BCL2 protein levels entry in the data set on BCL2 (setting [2]) is “significant reduction in BCL2 protein levels; also recorded: down-regulated”; with BCL2 (setting [3]), “strong reduction”; in the data set with BCL2 (setting [4]), “no effect”; in the data set with BCL2 (A2058 cells (vemurafenib resistant), 72 hrs post transfection, Western blot), “reduction; also recorded: down-regulated”. For the same molecule, in data set [1], the “cell viability relative to mock transfected cells” value was “reduced viability”. The BIRC5 protein levels result in the data set on BIRC5 (setting [3]) is on record as “most pronounced”; in the data set on BIRC5 (setting [4]), “strong downregulation”. Besides, the ERK1 protein levels result in the data set with ERK1 (setting [3]) is on record as “most pronounced”; in the data set on ERK1 (setting [4]), “not very strongly affected”.

Regarding `CCCS(=O)(=O)Nc1ccc(F)c(C(=O)c2c[nH]c3ncc(-c4ccc(Cl)cc4)cc23)c1F` [Vemurafenib, N-(3-{[5-(4-chlorophenyl)-1H-pyrrolo[2,3-b]pyridin-3-yl]carbonyl}-2,4-difluorophenyl)propane-1-sulfonamide], the BCL2 protein levels entry with BCL2 (setting [2]) was “but not CDK4 or BCL2”; with BCL2 (A375Hu cells, 72 hrs, Western blot, listed as PLX-4032), “not in reduction of CDK4 and BCL2 protein levels”. Besides, the BIRC5 protein levels result in the data set with BIRC5 (vemurafenib-resistant A2058, M249-AR4 and M376, 1 μM, 24 hrs (FIG. 14b)) was “protein levels similar to control-treated cells”; with BIRC5 (vemurafenib-sensitive A375 and M249, 1 μM, 24 hrs (FIG. 14b)) it was “downregulated”.
